What was measured:
Rattus norvegicus = species: Rattus norvegicus; assay: Antagonistic activity against excitations of rat ventromedial hyphalamic neurones evoked in CCK-B; format: functional
[1] = molecular target: T1, Gastrin/cholecystokinin type B receptor (Mus musculus, UniProt P56481); assay: The compound was evaluated for the inhibition of binding of [3H]-PD 140376 to Cholecystokinin type B receptor in mouse cortex.
T1 sequence (P56481 whole entry): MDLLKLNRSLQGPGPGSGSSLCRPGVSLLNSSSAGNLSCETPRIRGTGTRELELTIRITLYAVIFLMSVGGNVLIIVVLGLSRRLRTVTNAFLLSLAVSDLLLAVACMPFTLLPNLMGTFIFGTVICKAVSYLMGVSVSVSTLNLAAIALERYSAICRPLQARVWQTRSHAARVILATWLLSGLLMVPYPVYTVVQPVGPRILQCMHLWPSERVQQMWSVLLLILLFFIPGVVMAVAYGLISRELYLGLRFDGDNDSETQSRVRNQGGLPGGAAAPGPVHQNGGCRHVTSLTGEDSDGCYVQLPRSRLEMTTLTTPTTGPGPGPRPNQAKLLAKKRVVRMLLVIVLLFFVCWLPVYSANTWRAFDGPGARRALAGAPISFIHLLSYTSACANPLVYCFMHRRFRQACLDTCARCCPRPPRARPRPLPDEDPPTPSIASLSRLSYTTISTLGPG

[2] = molecular target: T2, Cholecystokinin receptor type A (Rattus norvegicus, UniProt P30551); assay: The compound was evaluated for the inhibition of binding of [125I]Bolton-Hunter CCK-8 to Cholecystokinin type A receptor in the rat pancreas.
T2 sequence (P30551 whole entry): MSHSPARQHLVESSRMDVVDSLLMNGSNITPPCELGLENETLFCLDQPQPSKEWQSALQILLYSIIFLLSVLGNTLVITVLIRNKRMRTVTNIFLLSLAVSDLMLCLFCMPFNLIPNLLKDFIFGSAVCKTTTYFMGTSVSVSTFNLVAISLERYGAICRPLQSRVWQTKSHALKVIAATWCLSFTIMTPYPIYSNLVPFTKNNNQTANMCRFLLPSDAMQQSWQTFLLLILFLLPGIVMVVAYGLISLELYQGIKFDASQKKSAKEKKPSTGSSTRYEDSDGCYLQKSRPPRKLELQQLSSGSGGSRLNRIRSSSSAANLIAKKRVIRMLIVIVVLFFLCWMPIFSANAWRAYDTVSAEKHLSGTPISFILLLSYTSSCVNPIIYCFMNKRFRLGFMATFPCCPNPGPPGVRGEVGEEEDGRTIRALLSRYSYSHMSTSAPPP

[3] = Tested for dissociation constant of the compound; Value ranges from 0.1-0.3; format: ADME
[4] = molecular target: T3, Gastrin/cholecystokinin type B receptor (Rattus norvegicus) (UniProt P30553); assay: Specific activity for Cholecystokinin type B receptor in 10e5 AR42J cells was determined for the compound.; format: cell-based; conditions: AR-42J
T3 sequence (whole entry): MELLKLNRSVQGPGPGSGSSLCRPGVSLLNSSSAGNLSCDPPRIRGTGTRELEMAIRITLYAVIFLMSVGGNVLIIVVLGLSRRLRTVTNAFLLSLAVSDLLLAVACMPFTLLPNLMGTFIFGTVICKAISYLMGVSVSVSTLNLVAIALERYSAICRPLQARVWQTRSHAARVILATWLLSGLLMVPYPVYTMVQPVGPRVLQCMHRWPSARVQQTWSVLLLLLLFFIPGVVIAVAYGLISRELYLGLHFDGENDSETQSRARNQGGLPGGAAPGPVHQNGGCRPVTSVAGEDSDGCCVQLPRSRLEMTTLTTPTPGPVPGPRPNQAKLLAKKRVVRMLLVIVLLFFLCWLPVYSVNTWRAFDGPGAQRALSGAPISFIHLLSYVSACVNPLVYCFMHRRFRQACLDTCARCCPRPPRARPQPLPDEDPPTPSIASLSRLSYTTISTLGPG

## CSCC[C@H](NC(=O)[C@H](Cc1c[nH]c2ccccc12)NC(=O)CCNC(=O)OC(C)(C)C)C(=O)N[C@@H](CC(=O)O)C(=O)N[C@@H](Cc1ccccc1)C(N)=O [PENTAGASTRIN]
Rattus norvegicus
  Ke: 1.4 nM

## C[C@](Cc1c[nH]c2ccccc12)(NC(=O)OC1C2CC3CC(C2)CC1C3)C(=O)N[C@@H](CC(=O)O)Cc1ccc(N)cc1 (stereo not given in full)
[1]
  Ki: 0.2 nM
[2]
  Ki: 350 nM
[3]
  Kd: 0.1 nM
[4]
  Bmax (fmol/10^5 cells): 31
